Tested on: mammary tumor derived from RBA CRL-1747 cell line
Test: Scintigraphic (planar) imaging in breast tumor-bearing rats
Format: in vivo, rat
Conditions: 0.5-4 hrs post-injection
Description: The camera field of view is 20 cm×20 cm with an edge of 1.3 cm. The intrinsic spatial resolution is 3 mm and the matrix is 64×64.
To ascertain whether the tumor uptake by with ^99mTc-GAP-EDL was related to estrogen receptors, we performed a blocking study. […] Computer outlined regions of interest (ROI) (counts per pixel) were used to determine tumor-to-background count density ratios.
Scintigraphic images were obtained at 0.5-4.0 hrs after i.v. injection of ^99mTc-GAP-COX2i (300 μCi/rat, iv) and imaged at 0.5-4.0 hrs in mammary tumor-bearing rats (derived from RBA CRL-1747 cell line). Whole-body autoradiograms were obtained by a quantitative image analyzer (Cyclone Storage Phosphor System, Packard, Meridian, Conn.). Following intravenous injection of ^99mTc-GAP-COX2i (100 μCi/rat, iv), athymic nude mice bearing human uterine sarcoma in the right leg were killed at 1 hour and the body was fixed in carboxymethyl cellulose (3%). […] Each section was thawed and mounted on a slide. […]
Scintigraphic images were obtained at 0.5-4.0 hrs after i.v. injection of ^99“Tc-GAP-LAS or GAP-HCD (300 μCi/rat, iv) and imaged at 0.5-4.0 hrs in mammary tumor-bearing rats (derived from RBA CRL-1747 cell line). Whole-body autoradiogramrs were obtained by a quantitative image analyzer (Cyclone Storage Phosphor System, Packard, Meridian, Conn.). […]

O=C([O-])CN(CCN(CC(=O)[O-])CC(=O)[O-])CCN(CC(=O)[O-])CC(=O)[O-].[99Tc+4] [^99mTc-DTPA]
tumor visualization on scintigraphic images: tumor could be visualized

Source: patent US20060246005A1, “Poly(peptide) as a chelator: methods of manufacture and uses” (THE BOARD OF REGENTS OF THE UNIVERSITY OF TEXAS SYSTEM, priority 2005, published 2006)
